Measured values as given in article PMC8482274, “Inadequate Cerebrospinal Fluid Concentrations of Available Salvage Agents Further Impedes the Optimal Treatment of Multidrug-Resistant Enterococcus faecium Meningitis and Bacteremia” (Infectious Disease Reports, 2021).
In brackets after ≈: the same amount, converted by molar mass. Where two headings read alike, the source gives them in different places.

Experiments:
[1] = cited from earlier work
VREf isolates = experiment: microbe, parasite or virus in culture
Method: (§1) Initial organism identification and susceptibility determination were performed via MALDI-TOF MS (Bruker Daltonics, Billerica, MA, USA) and MicroScan Walkaway (Beckman Coulter, Brea, CA), respectively, in the clinical microbiology laboratory. Pure colonies of the VREf isolates cultured from the CSF on hospital days 33 and 57 and from blood on days 35 and 52 were sub-cultured to BD BBL chocolate II agar slants (Becton, Dickinson and Company, Sparks, MD, USA) and shipped immediately overnight to the research laboratory where all subsequent testing was performed. Identification and resistance marker detection was confirmed via the Verigene Gram-positive blood culture assay (Luminex, Northbrook, IL, USA).
Minimum inhibitory concentrations were determined in triplicate according to CLSI guidelines. Modal MIC values are reported.

VREf = experiment: microbe, parasite or virus in culture; type: cell-based, Enterococcus faecium; settings: for local laboratory susceptibility result: VREf blood isolate of hospital day 22
Method: as §1

[2] = human, in vivo; cited from earlier work
[3] = plasma, published pharmacokinetic data, ref not given, cited from earlier work
Text: Almost exactly 2 days had elapsed between the time of the patient’s last oritavancin dose and the time of CSF collection.

[4] = parameters: method as in PMID 11408247; settings: animal study; cited from earlier work
[5] = tested on: VREf isolate cultured from the CSF on hospital day 33; experiment: Time-kill experiments; type: cell-based, Enterococcus faecium; settings: at mean measured CSF concentration; triplicate
Method: Next, the 5 drugs were tested in combination at their respective extrapolated maximal CSF concentration as described.

[6] = Estimated unbound plasma concentration, CSF/plasma penetration and projected maximum CSF concentration extrapolated from published pharmacokinetic data; settings: point estimate
Method: (§2) CSF samples were immediately frozen at −80 °C and shipped overnight on dry ice. […] Results are presented as the mean (±SD) of the two measured CSF concentrations. Additionally, estimated corresponding unbound plasma concentrations at the time of CSF collection were extrapolated for each agent from published pharmacokinetic data in order to establish an estimate of the degree of CSF/plasma penetration. This % CSF/plasma penetration was then utilized to predict the maximum post-dose CSF concentration on the basis of the peak free plasma concentration (fCmax) and the time of fCmax (Tmax) of each agent. Finally, these predictions were evaluated against published data, all of which were restricted to animal studies except for tigecycline.

[7] = CSF drug concentrations from day 57 lumbar puncture by LC-MS/MS; settings: one patient, systemic dosing at steady state, LLOQ 0.001 mg/L, mean of two CSF tubes, time after last dose: gentamicin 77:30, oritavancin 46:54, tigecycline 8:27, tedizolid 8:25, quinupristin/dalfopristin 2:00 h:m
Method: as §2

[8] = VREf isolate from CSF, hospital day 33, CLSI M100-S30 unless footnoted (b: CLSI vancomycin-susceptible E. faecalis; c: FDA E. faecalis; d: EUCAST v.10.0 E. faecium)
[9] = VREf isolate from CSF, hospital day 57, CLSI M100-S30 unless footnoted
[10] = VREf isolate from blood, hospital day 35, CLSI M100-S30 unless footnoted
[11] = VREf isolate from blood, hospital day 52, CLSI M100-S30 unless footnoted
[12] = VREf blood isolate returning after 11 days of daptomycin therapy
[13] = Enterococcus faecium, VREf isolate from CSF, hospital day 57, modal MIC of triplicate, CLSI guidelines
[14] = Enterococcus faecium, VREf isolate from blood, hospital day 52, modal MIC of triplicate, CLSI guidelines
[15] = Enterococcus faecium, VREf isolate from CSF, hospital day 33, modal MIC of triplicate, CLSI guidelines
[16] = Enterococcus faecium, VREf isolate from blood, hospital day 35, modal MIC of triplicate, CLSI guidelines

| MIC (VREf isolates; [13]) | MIC (VREf isolates; [14]) | MIC (VREf isolates; [15]) | MIC (VREf isolates; [16]) | SMILES | Interpretive Category (VREf isolates; [8]) | Interpretive Category (VREf isolates; [9]) | Interpretive Category (VREf isolates; [10]) | Interpretive Category (VREf isolates; [11]) | local laboratory susceptibility result (VREf) | susceptibility category (VREf; [12]) | also measured |
| --- | --- | --- | --- | --- | --- | --- | --- | --- | --- | --- | --- |
| 0.12 µg/mL | 0.12 µg/mL | – | – | CN(C)[C@@H]1C(O)=C(C(N)=O)C(=O)[C@@]2(O)C(O)=C3C(=O)c4c(O)c(NC(=O)CN5CCCC5)cc(F)c4C[C@H]3C[C@@H]12 [Eravacycline] | – | S | – | S | – | – | CNS penetration ([1]; rabbits): virtually zero |
| 1 µg/mL | 1 µg/mL | 1 µg/mL | 1 µg/mL | CN(C)c1cc(CNCC(C)(C)C)c(O)c2c1C[C@H]1C[C@H]3[C@H](N(C)C)C(O)=C(C(N)=O)C(=O)[C@@]3(O)C(O)=C1C2=O [Omadacycline] | R | R | R | R | – | – | – |

The remaining lines, values behind:

| SMILES | MIC (VREf isolates; [13]) | MIC (VREf isolates; [14]) | MIC (VREf isolates; [15]) | MIC (VREf isolates; [16]) | Interpretive Category (VREf isolates; [8]) | Interpretive Category (VREf isolates; [9]) | Interpretive Category (VREf isolates; [10]) | Interpretive Category (VREf isolates; [11]) | local laboratory susceptibility result (VREf) | susceptibility category (VREf; [12]) | also measured |
| --- | --- | --- | --- | --- | --- | --- | --- | --- | --- | --- | --- |
| CCN(CC)CCS(=O)(=O)[C@@H]1CCN2C(=O)c3coc(n3)CC(=O)C[C@H](O)/C=C(C)/C=C/CNC(=O)/C=C/[C@@H](C)[C@@H](C(C)C)OC(=O)[C@@H]12 [Dalfopristin] | – | – | – | – | – | – | – | – | – | – | Published % CSF/Plasma Penetration ([1]; rabbit pneumococcal meningitis data): 0 [23, 27] % |
| CCCCCCCCCC(=O)N[C@@H](Cc1c[nH]c2ccccc12)C(=O)N[C@H](CC(N)=O)C(=O)N[C@@H](CC(=O)O)C(=O)N[C@@H]1C(=O)NCC(=O)N[C@@H](CCCN)C(=O)N[C@@H](CC(=O)O)C(=O)N[C@H](C)C(=O)N[C@@H](CC(=O)O)C(=O)NCC(=O)N[C@H](CO)C(=O)N[C@@H]([C@H](C)CC(=O)O)C(=O)N[C@@H](CC(=O)c2ccccc2N)C(=O)O[C@@H]1C [Daptomycin] | – | – | – | – | R | R | R | R | resistance | resistant | MIC (VREf isolates): ≥8 µg/mL; susceptibility category (VREf; first episode of VREf bacteremia, 2.5 months before admission): susceptible dose-dependent |
| CC(=O)NC[C@H]1CN(c2ccc(N3CCOCC3)c(F)c2)C(=O)O1 [Linezolid] | 16 µg/mL | 16 µg/mL | 16 µg/mL | 16 µg/mL | R | R | R | R | resistance | susceptible | CSF penetration [2]: 66–85%; MIC (VREf; Enterococcus faecium, VREf blood isolate returning after 11 days of daptomycin therapy, daptomycin by broth microdilution): 2 µg/mL (≈ 5.93 µM) |
| CN[C@H](CC(C)C)C(=O)N[C@H]1C(=O)N[C@@H](CC(N)=O)C(=O)N[C@H]2C(=O)N[C@H]3C(=O)N[C@H](C(=O)N[C@H](C(=O)O)c4cc(O)cc(O)c4-c4cc3ccc4O)[C@H](O[C@H]3C[C@](C)(N)[C@@H](O)[C@H](C)O3)c3ccc(c(Cl)c3)Oc3cc2cc(c3O[C@@H]2O[C@H](CO)[C@@H](O)[C@H](O)[C@H]2O[C@H]2C[C@](C)(NCc3ccc(-c4ccc(Cl)cc4)cc3)[C@@H](O)[C@H](C)O2)Oc2ccc(cc2Cl)[C@H]1O [Oritavancin] | – | – | – | – | – | – | – | – | – | – | MIC (VREf isolates; VREf isolate from CSF, hospital day 33, modal MIC of triplicate, CLSI guidelines): 0.25 µg/mL; MIC (VREf isolates; VREf isolate from CSF, hospital day 57, modal MIC of triplicate, CLSI guidelines): 0.25 µg/mL; MIC (VREf isolates; VREf isolate from blood, hospital day 35, modal MIC of triplicate, CLSI guidelines): 0.25 µg/mL; MIC (VREf isolates; VREf isolate from blood, hospital day 52, modal MIC of triplicate, CLSI guidelines): 0.25 µg/mL; fCmax ([3]; after a 1200 mg dose): 20.7 mg/L; half-life [3]: 10.2 days; Published % CSF/Plasma Penetration [4]: 1–5 [26] %; bacterial growth (increase) at 24 h compared to the starting inoculum [5]: 0.69 log10 CFU/mL; projected maximal CSF concentration at plasma Tmax [6]: 0.014 mg/L; CSF/plasma ratio ([6]; this patient): 0.07%; Mean (±SD) Measured CSF Concentration [7]: 0.013 ± 0.005 mg/L |
